Each molecule was assayed against T1, 11β-HSD1 (Homo sapiens, UniProt P28845) (assay: In vitro inhibition of 11β-HSD1, HTRF detection of cortisol generated from cortisone by human liver microsomes). Details: 11β-HSD IC50 (nM), 1 hour at 37° C., pH 6.0, NADPH 200 μM, cortisone 80 nM, inhibition relative to carbenoxolone signal.
T1 construct: detecting cortisol generated from cortisterone by human liver microsomes; from tissue; host or cells: human liver microsomes
Assay type: biochemical
Procedure, shortened: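 Cortisol formed from cortisone by human liver microsomes quantified by competitive HTRF immunoassay (XL665-cortisol, Eu-cryptate anti-cortisol antibody), 2 h detection, Em665/Em615 ratio converted via cortisol calibration curve. Percent inhibition relative to carbenoxolone signal; IC50 from curves.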

T1 sequence (P28845 whole entry): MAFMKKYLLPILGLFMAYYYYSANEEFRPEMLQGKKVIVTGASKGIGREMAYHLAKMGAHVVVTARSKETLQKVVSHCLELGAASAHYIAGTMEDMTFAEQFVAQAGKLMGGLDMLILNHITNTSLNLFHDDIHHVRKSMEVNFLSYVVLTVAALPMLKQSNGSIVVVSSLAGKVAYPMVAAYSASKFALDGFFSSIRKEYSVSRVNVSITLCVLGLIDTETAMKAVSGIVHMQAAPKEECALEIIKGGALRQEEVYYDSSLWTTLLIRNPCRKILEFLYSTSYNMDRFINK

Compound	IC50 [nM]
C[C@@H]1[C@H]2Cc3ccc(-c4ccncc4)cc3[C@]1(C)CCN2C(=O)c1ccc2nc[nH]c2c1 [Example 251, (3H-Benzoimidazol-5-yl)-[(2R,6R,11S)-6,11-dimethyl-8-pyridin-4-yl-1,2,5,6-tetrahydro-4H-2,6-methano-benzo[d]azocin-3-yl]-methanone]	66
CN(C)S(=O)(=O)c1ccc2c(c1)C[C@H]1N(C(=O)c3ccc4nc[nH]c4c3)CC[C@]2(C)C1(C)C [Example 237, (2R,6S)-3-(3H-Benzoimidazole-5-carbonyl)-6,11,11-trimethyl-1,2,3,4,5,6-hexahydro-2,6-methano-benzo[d]azocine-9-sulfonic acid dimethylamide]	916
Cc1cc2c(cc1O)[C@@]1(C)CCN(C(=O)c3ccc4nc[nH]c4c3)[C@@H](C2)C1(C)C (stereo in doubt) [Example 66, (3H-Benzoimidazol-5-yl)-[(2S,6R)-8-hydroxy-6,9,11,11-tetramethyl-1,2,5,6-tetrahydro-4H-2,6-methano-benzo[d]azocin-3-yl]-methanone]	822
CC12CCN(C(=O)c3ccc4nc[nH]c4c3)C(Cc3ccc(F)cc31)C2(C)C (stereo not drawn) [Example 70, (3H-Benzoimidazol-5-yl)-(8-fluoro-6,11,11-trimethyl-1,2,5,6-tetrahydro-4H-2,6-methano-benzo[d]azocin-3-yl)-methanone]	362
COc1ccc2c(c1)[C@]1(C)CCN(C(=O)c3occc3C)[C@H](C2)[C@@H]1C [Example 111, [(2R,6R,11R)-8-Methoxy-6,11-dimethyl-1,2,5,6-tetrahydro-4H-2,6-methano-benzo[d]azocin-3-yl]-(3-methyl-furan-2-yl)-methanone]	1600
COc1cc(C(=O)N2CC[C@@]3(C)c4cccc(O)c4C[C@@H]2C3(C)C)ccc1CN1CCCC1=O [Example 122, 1-{4-[(2R,6S)-10-Hydroxy-6,11,11-trimethyl-1,2,5,6-tetrahydro-4H-2,6-methano-benzo[d]azocine-3-carbonyl]-2-methoxy-benzyl}-pyrrolidin-2-one]	818
CC1(C)[C@H]2Cc3c(O)cccc3[C@]1(C)CCN2C(=O)c1ccncc1 [Example 126, [(2R,6S)-10-Hydroxy-6,11,11-trimethyl-1,2,5,6-tetrahydro-4H-2,6-methano-benzo[d]azocin-3-yl]-pyridin-4-yl-methanone]	1270
NC(=O)C12CCN(C(=O)c3ccc4nc[nH]c4c3)C(Cc3ccc(O)cc31)C2 (stereo not drawn) [Example 214, 3-(3H-Benzoimidazole-5-carbonyl)-8-hydroxy-2,3,4,5-tetrahydro-1H-2,6-methano-benzo[d]azocine-6-carboxylic acid amide]	5710
CC1(C)[C@H]2Cc3c(O)cccc3[C@]1(C)CCN2C(=O)c1ccc(C#N)cc1 [Example 13]	1610
Cc1nnc(-c2ccc3c(c2)[C@]2(C)CCN(C(=O)c4ccc5nc[nH]c5c4)[C@H](C3)[C@H]2C)o1 [Example 332, (3H-Benzoimidazol-5-yl)-[(2R,6R,11S)-6,11-dimethyl-8-(5-methyl-[1,3,4]oxadiazol-2-yl)-1,2,5,6-tetrahydro-4H-2,6-methano-benzo[d]azocin-3-yl]-methanone]	64
C[C@@H]1[C@H]2Cc3ccc(C(=O)O)cc3[C@]1(C)CCN2C(=O)c1ccc2nc[nH]c2c1 [Example 151, (2R,6R,11S)-3-(3H-Benzoimidazole-5-carbonyl)-6,11-dimethyl-1,2,3,4,5,6-hexahydro-2,6-methano-benzo[d]azocine-8-carboxylic acid]	426
CC1(C)[C@H]2Cc3ccccc3[C@]1(C)CCN2C(=O)c1c(F)c(F)c(N)c(F)c1F [Example 281, (4-Amino-2,3,5,6-tetrafluoro-phenyl)-[(2R,6S)-6,11,11-trimethyl-1,2,5,6-tetrahydro-4H-2,6-methano-benzo[d]azocin-3-yl]-methanone]	918
CNC(=O)c1cccc(C(=O)N2CC[C@@]3(C)c4cccc(O)c4C[C@@H]2C3(C)C)c1 [Example 39, 3-[(2R,6S)-10-Hydroxy-6,11,11-trimethyl-1,2,5,6-tetrahydro-4H-2,6-methano-benzo[d]azocine-3-carbonyl]-N-methyl-benzamide]	1590
COC(=O)c1ccc2c(c1)[C@]1(C)CCN(C(=O)c3ccc4nc[nH]c4c3)[C@H](C2)[C@H]1C [Example 341, (2R,6R,11S)-3-(3H-Benzoimidazole-5-carbonyl)-6,11-dimethyl-1,2,3,4,5,6-hexahydro-2,6-methano-benzo[d]azocine-8-carboxylic acid methyl ester]	601
COc1cccc(C(=O)N2CC[C@@]3(C)c4cccc(O)c4C[C@@H]2C3(C)C)c1 [Example 11, [(2R,6S)-10-Hydroxy-6,11,11-trimethyl-1,2,5,6-tetrahydro-4H-2,6-methano-benzo[d]azocin-3-yl]-(3-methoxy-phenyl)-methanone]	530
CC1(C)[C@H]2Cc3c(O)cccc3[C@]1(C)CCN2C(=O)c1n[nH]c2c1CCCC2 [Example 219, [(2R,6S)-10-Hydroxy-6,11,11-trimethyl-1,2,5,6-tetrahydro-4H-2,6-methano-benzo[d]azocin-3-yl]-(4,5,6,7-tetrahydro-1H-indazol-3-yl)-methanone]	160
COc1ccc2c(c1)[C@]1(C)CCN(C(=O)c3ccccc3C)[C@H](C2)[C@@H]1C [Example 109, [(2R,6R,11R)-8-Methoxy-6,11-dimethyl-1,2,5,6-tetrahydro-4H-2,6-methano-benzo[d]azocin-3-yl]-o-tolyl-methanone]	1460
COC(=O)c1cccc(C(=O)N2CC[C@@]3(C)c4cccc(O)c4C[C@@H]2C3(C)C)c1 [Example 30, 3-[(2R,6S)-10-Hydroxy-6,11,11-trimethyl-1,2,5,6-tetrahydro-4H-2,6-methano-benzo[d]azocine-3-carbonyl]-benzoic acid methyl ester]	1400
Cn1cc(C(=O)N2CC[C@@]3(C)c4ccccc4C[C@@H]2C3(C)C)c2ccccc21 [Example 256, (1-Methyl-1H-indol-3-yl)-[(2R,6S)-6,11,11-trimethyl-1,2,5,6-tetrahydro-4H-2,6-methano-benzo[d]azocin-3-yl]-methanone]	222
C[C@@H]1[C@H]2Cc3ccc(C(N)=O)cc3[C@]1(C)CCN2C(=O)c1ccc2nc[nH]c2c1 [Example 157, (2R,6R,11S)-3-(3H-Benzoimidazole-5-carbonyl)-6,11-dimethyl-1,2,3,4,5,6-hexahydro-2,6-methano-benzo[d]azocine-8-carboxylic acid amide]	335
CC1(C)[C@H]2Cc3c(O)cccc3[C@]1(C)CCN2C(=O)c1ccc(C(=O)NCc2ccccc2)cc1 [Example 137, N-Benzyl-4-[(2R,6S)-10-hydroxy-6,11,11-trimethyl-1,2,5,6-tetrahydro-4H-2,6-methano-benzo[d]azocine-3-carbonyl]-benzamide]	3620
CC1(C)[C@H]2Cc3c(O)cccc3[C@]1(C)CCN2C(=O)c1ccncn1 [Example 129, [(2R,6S)-10-Hydroxy-6,11,11-trimethyl-1,2,5,6-tetrahydro-4H-2,6-methano-benzo[d]azocin-3-yl]-pyrimidin-4-yl-methanone]	5850
Cc1cccc2c1C[C@H]1N(C(=O)c3ccc4nc[nH]c4c3)CC[C@]2(C)C1(C)C [Example 139, (3H-Benzoimidazol-5-yl)-[(2R,6S)-6,10,11,11-tetramethyl-1,2,5,6-tetrahydro-4H-2,6-methano-benzo[d]azocin-3-yl]-methanone]	92
Cn1c(=O)[nH]c2cc(C(=O)N3CC[C@@]4(C)c5cccc(O)c5C[C@@H]3C4(C)C)ccc21 [Example 29, 5-[(2R,6S)-10-Hydroxy-6,11,11-trimethyl-1,2,5,6-tetrahydro-4H-2,6-methano-benzo[d]azocine-3-carbonyl]-1-methyl-1,3-dihydro-benzoimidazol-2-one]	1730
CC1(C)[C@H]2Cc3ccccc3[C@]1(C)CCN2C(=O)c1ccc(N)c(Cl)c1 [Example 295, (4-Amino-3-chloro-phenyl)-[(2R,6S)-6,11,11-trimethyl-1,2,5,6-tetrahydro-4H-2,6-methano-benzo[d]azocin-3-yl]-methanone]	35
Cc1nc(-c2ccc3c(c2)[C@]2(C)CCN(C(=O)c4ccc5nc[nH]c5c4)[C@H](C3)[C@H]2C)no1 [Example 231, (3H-Benzoimidazol-5-yl)-[(2R,6R,11S)-6,11-dimethyl-8-(5-methyl-[1,2,4]oxadiazol-3-yl)-1,2,5,6-tetrahydro-4H-2,6-methano-benzo[d]azocin-3-yl]-methanone]	146
CNS(=O)(=O)c1ccc2c(c1)[C@]1(C)CCN(C(=O)c3ccc4nc[nH]c4c3)[C@H](C2)C1(C)C [Example 202, (2R,6S)-3-(3H-Benzoimidazole-5-carbonyl)-6,11,11-trimethyl-1,2,3,4,5,6-hexahydro-2,6-methano-benzo[d]azocine-8-sulfonic acid methylamide]	66

Same assay, conditions: 1 hour at 37° C., pH 6.0, NADPH 200 μM, cortisone 80 nM, inhibition relative to carbenoxolone signal, read-out: 11β-HSD IC50

Compound	IC50 [nM]
CC12CC(Cc3ccccc31)N(C(=O)c1ccc3nc[nH]c3c1)C2 (stereo not drawn) [Example 323, (3H-Benzoimidazol-5-yl)-(1-methyl-10-aza-tricyclo[7.2.1.0*2,7*]dodeca-2,4,6-trien-10-yl)-methanone]	620
C[C@H]1[C@H]2CC3=CC(C#N)CC=C3[C@]1(C)CCN2C(=O)c1ccc2nc[nH]c2c1 (stereo partly drawn) [Example 236, (2R,6R,11R)-3-(3H-Benzoimidazole-5-carbonyl)-6,11-dimethyl-1,2,3,4,5,6,8,9-octahydro-2,6-methano-benzo[d]azocine-9-carbonitrile]	189
CC1C2c3ccc(O)cc3CC2N(C(=O)c2ccc3nc[nH]c3c2)CC1(C)C (stereo not drawn) [Example 330, (3H-Benzoimidazol-5-yl)-(7-hydroxy-3,3,4-trimethyl-2,3,4,4a,9,9a-hexahydro-indeno[2,1-b]pyridin-1-yl)-methanone]	44

— patent publication US8859580B2 (Boehringer Ingelheim International GmbH, priority 2007, dated 2014)
